Columns and labels:
Type in all cases: tissue-based
[1] = biological target: Adrenergic receptor alpha-2 (Rattus norvegicus) (UniProt P22086+P19328+P22909); test: Selectivity ratio of Alpha-2 adrenergic receptor by Alpha-1 adrenergic receptor in rat cerebral cortex
[2] = biological target: T1, Adrenergic receptor alpha-1 (Rattus norvegicus, UniProt P15823+P23944+P43140); test: Binding affinity towards Alpha-1 adrenergic receptor in rat cerebral cortex using [3H]prazosin
T1 sequence (P15823 whole entry): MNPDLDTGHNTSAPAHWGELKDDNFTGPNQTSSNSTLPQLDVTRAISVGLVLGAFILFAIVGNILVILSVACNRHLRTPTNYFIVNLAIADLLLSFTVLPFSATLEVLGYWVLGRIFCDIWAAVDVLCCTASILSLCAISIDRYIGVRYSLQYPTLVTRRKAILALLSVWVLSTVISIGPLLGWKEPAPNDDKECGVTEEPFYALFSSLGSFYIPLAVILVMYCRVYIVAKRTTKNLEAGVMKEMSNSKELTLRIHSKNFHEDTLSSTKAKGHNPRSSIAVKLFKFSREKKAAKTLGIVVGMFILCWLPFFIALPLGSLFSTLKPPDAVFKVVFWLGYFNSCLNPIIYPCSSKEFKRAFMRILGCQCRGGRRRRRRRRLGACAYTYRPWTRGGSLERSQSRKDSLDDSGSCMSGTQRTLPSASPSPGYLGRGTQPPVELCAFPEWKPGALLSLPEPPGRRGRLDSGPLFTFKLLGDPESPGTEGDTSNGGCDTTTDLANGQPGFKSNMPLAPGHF
T1 sequence (P23944 whole entry): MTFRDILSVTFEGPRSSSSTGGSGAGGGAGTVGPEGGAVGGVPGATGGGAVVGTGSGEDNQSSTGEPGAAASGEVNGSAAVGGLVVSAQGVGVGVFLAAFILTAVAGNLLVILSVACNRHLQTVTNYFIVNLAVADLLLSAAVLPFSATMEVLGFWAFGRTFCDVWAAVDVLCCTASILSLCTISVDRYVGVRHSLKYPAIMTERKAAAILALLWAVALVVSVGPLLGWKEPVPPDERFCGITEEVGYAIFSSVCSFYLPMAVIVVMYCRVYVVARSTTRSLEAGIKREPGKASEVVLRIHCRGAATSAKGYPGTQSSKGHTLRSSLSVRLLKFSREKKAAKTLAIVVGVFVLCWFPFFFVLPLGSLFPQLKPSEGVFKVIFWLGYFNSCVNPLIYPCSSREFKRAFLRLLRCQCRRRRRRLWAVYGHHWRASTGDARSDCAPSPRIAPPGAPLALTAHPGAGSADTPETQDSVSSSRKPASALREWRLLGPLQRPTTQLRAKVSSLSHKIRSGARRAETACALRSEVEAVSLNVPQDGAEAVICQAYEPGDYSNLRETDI
T1 sequence (P43140 whole entry): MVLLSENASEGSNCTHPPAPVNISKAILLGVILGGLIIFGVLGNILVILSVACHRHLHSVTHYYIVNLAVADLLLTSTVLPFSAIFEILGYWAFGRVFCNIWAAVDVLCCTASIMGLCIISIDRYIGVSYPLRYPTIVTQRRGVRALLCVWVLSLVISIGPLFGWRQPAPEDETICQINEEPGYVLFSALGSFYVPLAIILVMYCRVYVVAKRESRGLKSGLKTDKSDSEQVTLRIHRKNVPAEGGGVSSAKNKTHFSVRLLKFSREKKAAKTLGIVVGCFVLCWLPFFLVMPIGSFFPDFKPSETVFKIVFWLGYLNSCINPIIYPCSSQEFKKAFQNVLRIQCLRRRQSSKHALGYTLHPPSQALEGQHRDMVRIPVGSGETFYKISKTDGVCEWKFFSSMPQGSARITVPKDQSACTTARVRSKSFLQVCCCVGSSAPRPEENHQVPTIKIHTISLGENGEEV

[3] = biological target: T2, Adrenergic receptor alpha-2 (Rattus norvegicus, UniProt P22086+P19328+P22909); test: Binding affinity towards Alpha-2 adrenergic receptor in rat cerebral cortex using [3H]rauwolscine
T2 sequence (P22086 whole entry): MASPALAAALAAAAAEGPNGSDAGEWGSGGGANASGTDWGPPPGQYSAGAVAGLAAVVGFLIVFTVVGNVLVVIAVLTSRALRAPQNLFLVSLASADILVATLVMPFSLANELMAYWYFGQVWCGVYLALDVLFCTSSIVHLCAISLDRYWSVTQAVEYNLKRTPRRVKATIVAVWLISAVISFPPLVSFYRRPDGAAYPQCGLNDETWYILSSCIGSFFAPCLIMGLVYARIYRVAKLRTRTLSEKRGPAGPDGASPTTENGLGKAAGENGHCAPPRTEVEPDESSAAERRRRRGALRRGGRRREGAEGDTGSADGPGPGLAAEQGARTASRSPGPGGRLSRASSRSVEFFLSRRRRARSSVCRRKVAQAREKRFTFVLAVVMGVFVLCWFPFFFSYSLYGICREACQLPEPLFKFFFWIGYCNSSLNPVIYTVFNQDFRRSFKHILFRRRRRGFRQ
T2 sequence (P19328 whole entry): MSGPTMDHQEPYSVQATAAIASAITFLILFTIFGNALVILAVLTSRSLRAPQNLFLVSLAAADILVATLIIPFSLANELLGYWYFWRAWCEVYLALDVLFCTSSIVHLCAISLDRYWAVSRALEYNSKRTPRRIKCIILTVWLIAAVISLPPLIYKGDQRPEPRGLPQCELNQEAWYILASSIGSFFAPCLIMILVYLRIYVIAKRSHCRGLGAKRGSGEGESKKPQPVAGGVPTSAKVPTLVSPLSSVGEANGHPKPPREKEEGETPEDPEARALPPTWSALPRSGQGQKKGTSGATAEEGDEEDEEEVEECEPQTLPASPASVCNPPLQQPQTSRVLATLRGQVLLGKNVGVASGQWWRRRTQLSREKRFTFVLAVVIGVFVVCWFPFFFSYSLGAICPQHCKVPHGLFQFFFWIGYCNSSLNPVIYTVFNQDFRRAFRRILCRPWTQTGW
T2 sequence (P22909 whole entry): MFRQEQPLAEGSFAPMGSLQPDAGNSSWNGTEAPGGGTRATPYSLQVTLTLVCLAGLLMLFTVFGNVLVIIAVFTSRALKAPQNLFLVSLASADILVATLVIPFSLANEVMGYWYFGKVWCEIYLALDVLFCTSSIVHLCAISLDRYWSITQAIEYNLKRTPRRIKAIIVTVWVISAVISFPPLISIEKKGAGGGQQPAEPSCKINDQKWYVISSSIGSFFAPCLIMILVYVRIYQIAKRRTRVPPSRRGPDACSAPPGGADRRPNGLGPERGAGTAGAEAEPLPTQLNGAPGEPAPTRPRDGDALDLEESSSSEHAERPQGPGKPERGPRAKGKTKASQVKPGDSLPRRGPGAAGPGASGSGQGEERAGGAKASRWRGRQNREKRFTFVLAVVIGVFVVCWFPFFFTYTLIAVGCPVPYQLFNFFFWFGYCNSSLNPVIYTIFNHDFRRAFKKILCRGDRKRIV

[4] = biological target: T3, 5-hydroxytryptamine receptor 1A (Rattus norvegicus, UniProt P19327); test: Binding affinity towards 5-hydroxytryptamine 1A receptor in rat cerebral cortex using [3H]-8-OH-DPAT
T3 sequence (P19327 whole entry): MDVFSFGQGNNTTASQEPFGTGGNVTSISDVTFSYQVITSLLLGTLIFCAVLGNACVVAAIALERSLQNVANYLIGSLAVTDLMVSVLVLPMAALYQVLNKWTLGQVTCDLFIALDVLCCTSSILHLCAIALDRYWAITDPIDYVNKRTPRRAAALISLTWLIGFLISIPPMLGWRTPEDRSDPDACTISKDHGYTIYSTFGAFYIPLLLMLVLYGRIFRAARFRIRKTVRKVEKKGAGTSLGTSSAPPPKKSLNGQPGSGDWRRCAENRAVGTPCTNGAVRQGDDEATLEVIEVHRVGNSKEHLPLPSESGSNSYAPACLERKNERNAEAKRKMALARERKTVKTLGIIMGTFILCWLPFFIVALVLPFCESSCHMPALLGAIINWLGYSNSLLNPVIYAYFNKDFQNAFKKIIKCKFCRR

[5] = biological target: T3, 5-hydroxytryptamine receptor 1A; test: Binding affinity towards 5-hydroxytryptamine 1A receptor in rat cerebral cortex

| SMILES | Selectivity ratio [1] | Ki [2] [nM] | Ki [3] [nM] | Ki [4] [nM] | Ki [5] [nM] |
| --- | --- | --- | --- | --- | --- |
| CCOc1ccccc1N1CCN(CCCCCCCn2ncc(N3CCN(CCOc4ccccc4OC)CC3)c(Cl)c2=O)CC1 | 14 | 0.58 | 8.2 | – | – |
| COc1ccccc1OCCN1CCN(c2cnn(CCCCCCCN3CCN(c4ccccc4OC)CC3)c(=O)c2Cl)CC1 | 3 | – | – | – | – |
| CCOc1ccccc1OCCN1CCN(c2cnn(CCCCCCCN3CCN(c4ccccc4OCC)CC3)c(=O)c2Cl)CC1 | 5 | 0.43 | 2 | 0.22 | – |
| CCOc1ccccc1OCCN1CCN(c2cnn(CCCCCCCN3CCN(c4ccccc4OC(C)C)CC3)c(=O)c2Cl)CC1 | 12 | 0.26 | 3.2 | – | 0.82 |
| CCOc1ccccc1OCCN1CCN(c2cnn(CCCCCCCN3CCN(c4ccccc4OC)CC3)c(=O)c2Cl)CC1 | 3 | 0.55 | 1.6 | 0.16 | – |
| CCOc1ccccc1N1CCN(CCCCCCCn2ncc(N3CCN(C(=O)c4ccco4)CC3)c(Cl)c2=O)CC1 | 8 | 0.5 | 4 | – | – |
| COc1ccccc1N1CCN(CCCCCCCn2ncc(N3CCN(C(=O)c4ccco4)CC3)c(Cl)c2=O)CC1 | 274 | – | – | – | – |
| CC(C)Oc1ccccc1N1CCN(CCCCCCCn2ncc(N3CCN(C(=O)c4ccco4)CC3)c(Cl)c2=O)CC1 | 11 | 0.052 | 0.56 | 0.8 | – |

Reference: ChEMBL document CHEMBL1136256, “alpha1-Adrenoceptor antagonists. 5. Pyridazinone-arylpiperazines. Probing the influence on affinity and selectivity of both ortho-alkoxy groups at the arylpiperazine moiety and cyclic substituents at the pyridazinone nucleus” (Bioorg Med Chem Lett, 2003)
